The target in the experiment is T1, Full-length, GST-tagged, human CaMKIIδ (Homo sapiens, UniProt Q13557).
T1 construct: Full-Length, Glutathione-S-Transferase(GST)-Tagged, Human CaMKIIδ was purchased from Carna Biosciences; purchased Carna Biosciences 02-111
T1 sequence (Q13557 1-478 isoform Q13557-12): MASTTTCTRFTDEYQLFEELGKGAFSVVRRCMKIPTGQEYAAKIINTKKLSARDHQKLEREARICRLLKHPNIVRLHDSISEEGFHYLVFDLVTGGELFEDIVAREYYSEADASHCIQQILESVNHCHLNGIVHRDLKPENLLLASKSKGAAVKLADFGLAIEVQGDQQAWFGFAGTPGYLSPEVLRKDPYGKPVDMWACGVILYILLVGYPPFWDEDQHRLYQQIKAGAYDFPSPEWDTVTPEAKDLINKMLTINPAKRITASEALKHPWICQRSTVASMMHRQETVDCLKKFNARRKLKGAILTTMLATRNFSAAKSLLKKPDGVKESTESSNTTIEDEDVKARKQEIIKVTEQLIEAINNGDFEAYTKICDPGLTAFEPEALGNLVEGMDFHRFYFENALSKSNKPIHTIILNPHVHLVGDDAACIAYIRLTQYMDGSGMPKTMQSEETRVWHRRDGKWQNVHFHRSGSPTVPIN
In words: CaMKIIδ binding assay (TR-FRET with BODIPY-labeled probe ligand). The following applies: CaMKIIδ binding assay, results of Table 2. As for the experimental part: In vitro CaMKIIδ inhibitory activity was evaluated by a binding assay.
Full-Length, Glutathione-S-Transferase(GST)-Tagged, Human CaMKIIδ was purchased from Carna Biosciences (product #02-111, Kobe, Japan). Full-length bovine calmodulin was purchased from Wako Pure Chemical Industries (Osaka, Japan). Terbium-labeled anti-GST antibody (Tb-anti-GST Ab) was purchased from Life Technologies (Carlsbad, Calif., USA). Boron-dipyrromethene (BODIPY)-labeled probe ligand was synthesized as described below.
Time-Resolved Fluorescence Resonance Energy Transfer (TR-FRET) Assay
All assays were conducted using 384-well, white, flat-bottomed plates (product #784075, Greiner Bio-One, Frickenhausen, Germany) in kinase assay buffer, which consists of 50 mM HEPES pH 7.6, 10 mM MgCl2, 1 mM EGTA, 0.01% Brig-35, 0.1 mM DTT). The fluorescent probe ligand was added at a final concentration of 300 nM to solutions containing 0.21 nM Tb-anti-GST Ab, 1 mM CaCl2), 10 μg/mL calmodulin, and 0.5 nM GST-tagged CaMKIIδ. After shaded incubation of the protein-probe mixture on ice for 30 min, the premix was dispensed in the assay plate including test inhibitors with 4 fold dilution series of eight concentrations. After 1 hr incubation at room temperature, TR-FRET signals were measured in duplicate using an EnVision microplate reader (Perkin Elmer, Waltham, Mass., USA). The solution in each well was excited with a laser (λ=340 nm) reflected by a dichroic mirror (D400/D505 (Perkin Elmer) through an excitation filter (UV (TRF) 340, (Perkin Elmer)), and fluorescence from Tb and BODIPY were detected through two emission filters (CFP 495 (Perkin Elmer) for Tb, Emission 520 (Perkin Elmer) for BODIPY).
The percentage of inhibition of test compounds was calculated according to equation (1) Inhibition (%)=100×([…]−T)/(μH−μL) (1)
Where T is the value of the wells containing test compounds and μH and μL are the mean values of the 0% and 100% inhibition control wells, respectively. The values of the 0 and 100% controls were the signals obtained in the absence and presence of 3 μM its parent compound, respectively. The half maximal inhibitory concentration (IC50) of test compounds was calculated by fitting the data with the logistic equation using XLfit (IDBS, Guildford, UK). The IC50 was classified according to the following activity ranks.
In the case of `COc1cc2c(cc1Nc1ncc(-c3ccc(Cl)c(O[C@@H](C)Cn4cnnn4)c3)cn1)C(=O)N(CC1COC1)C2` [Example 445, (S)-6-((5-(3-((1-(1H-tetrazol-1-yl)propan-2-yl)oxy)-4-chlorophenyl)pyrimidin-2-yl)amino)-5-methoxy-2-(oxetan-3-ylmethyl)isoindolin-1-one], the IC50 lay in the range of 0.01 to 0.1 µM.

The compound `COc1cc2c(cc1Nc1ncc(-c3ccc(C#N)c(O[C@@H](C)Cn4cnnn4)c3)cn1)C(=O)N(CC1COC1)C2` [Example 446, (S)-2-((1-(1H-tetrazol-1-yl)propan-2-yl)oxy)-4-(2-((6-methoxy-2-(oxetan-3-ylmethyl)-3-oxoisoindolin-5-yl)amino)pyrimidin-5-yl)benzonitrile] showed a half-inhibitory concentration (IC50) of 0.01 to 0.1 µM.

The compound `COc1cc2c(cc1Nc1ncc(-c3ccc(Cl)c(O[C@@H](C)Cn4cnnn4)c3)cn1)CCN(C1COC1)CC2` [Example 447, (S)-N-(5-(3-((1-(1H-tetrazol-1-yl)propan-2-yl)oxy)-4-chlorophenyl)pyrimidin-2-yl)-8-methoxy-3-(oxetan-3-yl)-2,3,4,5-tetrahydro-1H-benzo[d]azepin-7-amine] yielded an IC50 of less than 0.01 µM.

`COc1ccc(CN2CCOCC2)cc1Nc1ncc(-c2ccc(Cl)c(O[C@@H](C)Cn3cnnn3)c2)cn1` [Example 448, (S)-5-(3-((1-(1H-tetrazol-1-yl)propan-2-yl)oxy)-4-chlorophenyl)-N-(2-methoxy-5-(morpholinomethyl)phenyl)pyrimidin-2-amine] showed an IC50 of 0.01 to 0.1 µM.

`COc1ccc(CN2CCS(=O)(=O)CC2)cc1Nc1ncc(-c2ccc(Cl)c(O[C@@H](C)Cn3cnnn3)c2)cn1` [Example 449, (S)-4-(3-((5-(3-((1-(1H-tetrazol-1-yl)propan-2-yl)oxy)-4-chlorophenyl)pyrimidin-2-yl)amino)-4-methoxybenzyl)thiomorpholine 1,1-dioxide] displayed an IC50 of 0.01 to 0.1 µM.

Regarding `C[C@@H](Cn1cnnn1)Oc1cc(-c2cnc(Nc3ccc4c(c3)CCN4C(=O)OC(C)(C)C)nc2)ccc1Cl` [Example 450, tert-butyl (S)-5-((5-(3-((1-(1H-tetrazol-1-yl)propan-2-yl)oxy)-4-chlorophenyl)pyrimidin-2-yl)amino)indoline-1-carboxylate], the IC50 is not below 0.1 µM.

In the case of `C[C@@H](Cn1cnnn1)Oc1cc(-c2cnc(Nc3ccc4c(c3)CCN4)nc2)ccc1Cl` [Example 451, (S)-N-(5-(3-((1-(1H-tetrazol-1-yl)propan-2-yl)oxy)-4-chlorophenyl)pyrimidin-2-yl)indolin-5-amine], the IC50 fell in the range of 0.01 to 0.1 µM.

`C[C@@H](Cn1cnnn1)Oc1cc(-c2cnc(Nc3ccc4c(c3)CCN4C(=O)C3CCN(C)CC3)nc2)ccc1Cl` [Example 452, (S)-(5-((5-(3-((1-(1H-tetrazol-1-yl)propan-2-yl)oxy)-4-chlorophenyl)pyrimidin-2-yl)amino)indolin-1-yl) (1-methylpiperidin-4-yl)methanone] registered an IC50 of less than 0.01 µM.

The compound `Cc1cc(N2CCC(N3CCOCC3)CC2)ccc1Nc1ncc(-c2ccc(Cl)c(O[C@@H](C)Cn3cnnn3)c2)cn1` [Example 453, (S)-5-(3-((1-(1H-tetrazol-1-yl)propan-2-yl)oxy)-4-chlorophenyl)-N-(2-methyl-4-(4-morpholinopiperidin-1-yl)phenyl)pyrimidin-2-amine] registered an IC50 of less than 0.01 µM.

Compound `COc1cc2c(cc1Nc1ncc(-c3ccc(Cl)c(O[C@@H](C)Cn4cnnn4)c3)cn1)CN(C1COC1)CCO2` [Example 454, (S)-N-(5-(3-((1-(1H-tetrazol-1-yl)propan-2-yl)oxy)-4-chlorophenyl)pyrimidin-2-yl)-8-methoxy-4-(oxetan-3-yl)-2,3,4,5-tetrahydrobenzo[f][1,4]oxazepin-7-amine] showed an IC50 not below 0.1 µM.

Compound `COc1ccc(N2CCCC(N3CCOCC3)C2)cc1Nc1ncc(-c2ccc(Cl)c(O[C@@H](C)Cn3cnnn3)c2)cn1` (stereo partly drawn) [Example 455, 5-(3-(((S)-1-(1H-tetrazol-1-yl)propan-2-yl)oxy)-4-chlorophenyl)-N-(2-methoxy-5-(3-morpholinopiperidin-1-yl)phenyl)pyrimidin-2-amine] returned an IC50 of 0.01 to 0.1 µM.

As to `COc1cnc(N2CCC(N3CCOCC3)CC2)cc1Nc1ncc(-c2ccc(Cl)c(O[C@@H](C)Cn3cnnn3)c2)cn1` [Example 456, (S)-5-(3-((1-(1H-tetrazol-1-yl)propan-2-yl)oxy)-4-chlorophenyl)-N-(5-methoxy-2-(4-morpholinopiperidin-1-yl)pyridin-4-yl)pyrimidin-2-amine], the half-maximal inhibitory concentration (IC50) was less than 0.01 µM.

`COc1cnc(N2CCCC(N3CCOCC3)C2)cc1Nc1ncc(-c2ccc(Cl)c(O[C@@H](C)Cn3cnnn3)c2)cn1` (stereo partly drawn) [Example 457, 5-(3-(((S)-1-(1H-tetrazol-1-yl)propan-2-yl)oxy)-4-chlorophenyl)-N-(5-methoxy-2-(3-morpholinopiperidin-1-yl)pyridin-4-yl)pyrimidin-2-amine] came in with an IC50 of 0.01 to 0.1 µM.

Turning to `COc1cc2c(cc1Nc1ncc(-c3ccc(C#N)c(O[C@@H](C)Cn4cnnn4)c3)cn1)CCN(C(=O)C(F)(F)F)C2` [Example 458, (S)-2-((1-(1H-tetrazol-1-yl)propan-2-yl)oxy)-4-(2-((7-methoxy-2-(2,2,2-trifluoroacetyl)-1,2,3,4-tetrahydroisoquinolin-6-yl)amino)pyrimidin-5-yl)benzonitrile], the IC50 lay in the range of 0.01 to 0.1 µM.

As for `COc1cc2c(cc1Nc1ncc(-c3ccc(Cl)c(O[C@@H](C)Cn4cnnn4)c3)cn1)CCN(C(=O)CN(C)C)C2` [Example 459, (S)-1-(6-((5-(3-((1-(1H-tetrazol-1-yl)propan-2-yl)oxy)-4-chlorophenyl)pyrimidin-2-yl)amino)-7-methoxy-3,4-dihydroisoquinolin-2(1H)-yl)-2-(dimethylamino)ethan-1-one], the IC50 was less than 0.01 µM.

Compound `COc1cc2c(cc1Nc1ncc(-c3ccc(Cl)c(O[C@@H](C)Cn4cnnn4)c3)cn1)CN(C(=O)C(F)(F)F)CC2` [Example 460, (S)-1-(7-((5-(3-((1-(1H-tetrazol-1-yl)propan-2-yl)oxy)-4-chlorophenyl)pyrimidin-2-yl)amino)-6-methoxy-3,4-dihydroisoquinolin-2(1H)-yl)-2,2,2-trifluoroethan-1-one] yielded an IC50 not below 0.1 µM.

Take `COc1cc2c(cc1Nc1ncc(-c3ccc(Cl)c(O[C@@H](C)Cn4cnnn4)c3)cn1)CNCC2` [Example 461, (S)-N-(5-(3-((1-(1H-tetrazol-1-yl)propan-2-yl)oxy)-4-chlorophenyl)pyrimidin-2-yl)-6-methoxy-1,2,3,4-tetrahydroisoquinolin-7-amine]: the IC50 was less than 0.01 µM.

Turning to `Cc1ncc(N2CCC(N3CCOCC3)CC2)cc1Nc1ncc(-c2ccc(Cl)c(O[C@@H](C)Cn3cnnn3)c2)cn1` [Example 462, (S)-5-(3-((1-(1H-tetrazol-1-yl)propan-2-yl)oxy)-4-chlorophenyl)-N-(2-methyl-5-(4-morpholinopiperidin-1-yl)pyridin-3-yl)pyrimidin-2-amine], the IC50 was less than 0.01 µM.

`COc1cc2c(cc1Nc1ncc(-c3ccc(Cl)c(O[C@@H](C)Cn4cnnn4)c3)cn1)CN(C1COC1)CC2` [Example 463, (S)-N-(5-(3-((1-(1H-tetrazol-1-yl)propan-2-yl)oxy)-4-chlorophenyl)pyrimidin-2-yl)-6-methoxy-2-(oxetan-3-yl)-1,2,3,4-tetrahydroisoquinolin-7-amine] showed an IC50 of less than 0.01 µM.

`COc1cc2c(cc1Nc1ncc(-c3ccc(Cl)c(O[C@@H](C)Cn4cnnn4)c3)cn1)CN(C(=O)CN(C)C)CC2` [Example 464, (S)-1-(7-((5-(3-((1-(1H-tetrazol-1-yl)propan-2-yl)oxy)-4-chlorophenyl)pyrimidin-2-yl)amino)-6-methoxy-3,4-dihydroisoquinolin-2(1H)-yl)-2-(dimethylamino)ethan-1-one] displayed an IC50 of less than 0.01 µM.

The compound `COc1cc2c(cc1Nc1ncc(-c3ccc(Cl)c(O[C@@H](C)Cn4cnnn4)c3)cn1)CCNC2` [Example 465, (S)-N-(5-(3-((1-(1H-tetrazol-1-yl)propan-2-yl)oxy)-4-chlorophenyl)pyrimidin-2-yl)-7-methoxy-1,2,3,4-tetrahydroisoquinolin-6-amine] registered an IC50 of less than 0.01 µM.

`COc1cc2c(cc1Nc1ncc(-c3ccc(Cl)c(O[C@@H](C)Cn4cnnn4)c3)cn1)N(C(C)=O)CC2` [Example 466, (S)-1-(6-((5-(3-((1-(1H-tetrazol-1-yl)propan-2-yl)oxy)-4-chlorophenyl)pyrimidin-2-yl)amino)-5-methoxyindolin-1-yl)ethan-1-one] displayed an IC50 of 0.01 to 0.1 µM.

The values are drawn from patent US10543212B2, “Substituted amines for treating cardiac diseases” (Cardurion Pharmaceuticals, LLC, priority 2017, dated 2020).
